Patent US20080255134A1 (Artesian Therapeutics, Inc., priority 2004, published 2008)
Where two headings read alike, the source gives them in different places.

Molecular target: T1, PDE3 (Homo sapiens, UniProt Q14432)
T1 construct: from tissue; host or cells: human platelets
Assay: In vitro assay for cAMP PDE-3 inhibitory activity
Format: biochemical
Details: human platelet cyclic AMP phosphodiesterase, bound stated
Protocol: Human platelet cyclic AMP phosphodiesterase was prepared according to the method of Alvarez et al., Mol. Pharmacol. 29: 554 (1986). The PDE incubation medium contained 10 mM Tris-HCl buffer, pH 7.7, 10 mM MgSO4, and 1 μM […] (0.2 μCi) in a total volume of 1.0 mL. Test compounds were dissolved in DMSO immediately prior to addition to the incubation medium, and the resulting mixture was allowed to stand for 10 minutes prior to the addition of enzyme. Following the addition of PDE, the contents were mixed and incubated for 10 minutes at 30° C. Three assays each were performed for each of five test compound concentrations, the mean of the determinations (n=3) at each concentration was plotted, and IC50 values were determined graphically.
The ability of Compounds 25 and 8c to inhibit PDE3 and β-adrenergic receptor activity was examined both in vitro and in vivo. […] Non-selective β-adrenergic and β1-adrenergic radioligand binding assays were performed using rat cortical membranes; β2-adrenergic receptor assays were performed using membranes isolated from CHO cells expressing human, recombinant b2-adrenergic receptor; non-selective α1-adrenergic receptor assays were performed using rat forebrain membranes; and PDE3 binding assays were performed on human platelets. Values in percent illustrate percent inhibition at 1000 nM concentration.

[1] = read-out: PDE IC50 inhibition values

T1 sequence (Q14432 whole entry): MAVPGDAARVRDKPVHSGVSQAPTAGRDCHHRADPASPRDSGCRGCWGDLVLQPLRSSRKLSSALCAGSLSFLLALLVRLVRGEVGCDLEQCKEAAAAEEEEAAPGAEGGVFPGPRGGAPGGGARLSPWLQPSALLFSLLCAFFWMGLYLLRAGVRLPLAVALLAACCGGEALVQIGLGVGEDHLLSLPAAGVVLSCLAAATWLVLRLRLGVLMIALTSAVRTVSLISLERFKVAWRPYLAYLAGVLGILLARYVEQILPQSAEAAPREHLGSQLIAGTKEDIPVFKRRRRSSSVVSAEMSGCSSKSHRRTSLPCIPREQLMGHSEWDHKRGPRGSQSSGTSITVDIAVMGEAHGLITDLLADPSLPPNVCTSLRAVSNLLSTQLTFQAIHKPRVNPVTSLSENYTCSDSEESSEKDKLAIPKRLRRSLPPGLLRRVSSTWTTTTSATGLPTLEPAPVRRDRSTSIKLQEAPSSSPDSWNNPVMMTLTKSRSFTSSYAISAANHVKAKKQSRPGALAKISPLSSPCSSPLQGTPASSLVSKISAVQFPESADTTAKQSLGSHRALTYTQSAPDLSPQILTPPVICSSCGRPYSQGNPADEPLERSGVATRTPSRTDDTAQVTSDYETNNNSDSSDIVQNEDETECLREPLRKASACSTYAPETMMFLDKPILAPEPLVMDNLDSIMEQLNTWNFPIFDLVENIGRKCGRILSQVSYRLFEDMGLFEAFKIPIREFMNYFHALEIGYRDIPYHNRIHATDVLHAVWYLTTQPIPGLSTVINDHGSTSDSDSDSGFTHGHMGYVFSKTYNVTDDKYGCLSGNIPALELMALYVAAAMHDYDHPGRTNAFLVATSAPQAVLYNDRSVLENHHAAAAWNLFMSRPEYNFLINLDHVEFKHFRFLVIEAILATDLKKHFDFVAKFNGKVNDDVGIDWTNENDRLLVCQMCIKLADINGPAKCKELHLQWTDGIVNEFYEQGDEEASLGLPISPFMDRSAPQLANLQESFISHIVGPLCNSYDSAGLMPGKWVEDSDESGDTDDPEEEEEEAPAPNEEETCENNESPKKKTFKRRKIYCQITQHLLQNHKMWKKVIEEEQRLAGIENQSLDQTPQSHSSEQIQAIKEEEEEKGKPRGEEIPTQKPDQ

Row | SMILES | IC50 (read-out: PDE3 inhibition IC50) [nM] | IC50 [1] [nM]
1 | O=C1CCC(c2ccc(OCCCNC[C@H](O)COc3ccc4c(c3)[nH]c3ccccc34)c(Cl)c2)=NN1 [Compound 35, 6-(4-{3-[(S)-3-(9H-Carbazol-2-yloxy)-2-hydroxy-propylamino]-propoxy}-3-chloro-phenyl)-4,5-dihydro-2H-pyridazin-3-one] | < 1000 | 
2 | O=C(COc1ccc(C2=NNC(=O)CC2)cc1Cl)NCCNCC(O)COc1cccc2[nH]c3ccccc3c12 (stereo not drawn) [Compound 70] | < 1000 | < 100
3 | O=C1CCC(c2ccc(OCCCCCNCC(O)COc3cccc4[nH]c5ccccc5c34)c(Cl)c2)=NN1 (stereo not drawn) [Compound 57] | < 1000 | 
4 | O=C1CCC(c2ccc(OCCCCNCC(O)COc3cccc4[nH]c5ccccc5c34)c(Cl)c2)=NN1 (stereo not drawn) [Compound 56] | < 1000 | < 100
5 | O=C1CCC(c2ccc(OCCCNC[C@H](O)COc3cccc4[nH]c5ccccc5c34)c(Cl)c2)=NN1 [Compound 29, 6-(4-{3-[(S)-3-(9H-Carbazol-4-yloxy)-2-hydroxy-propylamino]-propoxy}-3-chloro-phenyl)-4,5-dihydro-2H-pyridazin-3-one] | < 1000 | < 100
6 | COCCc1ccc(OC[C@@H](O)CNC2CCN(C(=O)COc3ccc(C4=NNC(=O)CC4)cc3Cl)C2)cc1 (stereo partly drawn) [Compound 42, 6-{3-Chloro-4-[2-(3-{(S)-2-hydroxy-3-[4-(2-methoxy-ethyl)-phenoxy]-propylamino}-pyrrolidin-1-yl)-2-oxo-ethoxy]-phenyl}-4,5-dihydro-2H-pyridazin-3-one] | < 1000 | 
7 | COCCc1ccc(OC[C@@H](O)CNCCCCCOc2ccc(C3=NNC(=O)CC3)cc2Cl)cc1 [Compound 46] | < 1000 | 
8 | COCCc1ccc(OC[C@@H](O)CNCCCOc2ccc(C3=NNC(=O)CC3)cc2Cl)cc1 [Compound 36] | < 1000 | < 100
9 | CC(C)(CNC(=O)COc1ccc(C2=NNC(=O)CC2)cc1Cl)NCC(O)COc1c(Br)ccc2[nH]c3ccccc3c12 (stereo not drawn) [Compound 72a, N-{2-[3-(3-Bromo-9H-carbazol-4-yloxy)-2-hydroxy-propylamino]-2-methyl-propyl}-2-[2-chloro-4-(6-oxo-1,4,5,6-tetrahydro-pyridazin-3-yl)-phenoxy]-acetamide] | < 1000 | 
10 | O=C1CCC(c2ccc(OCCNCC(O)COc3ccc4c(c3)[nH]c3ccccc34)c(Cl)c2)=NN1 (stereo not drawn) [Compound 34, 6-(4-{2-[3-(9H-carbazol-2-yloxy)-2-hydroxy-propylamino]-ethoxy}-3-chloro-phenyl)-4,5-dihydro-2H-pyridazin-3-one] | < 1000 | 
11 | O=C1CCC(c2ccc(OCCNC[C@H](O)COc3cccc4[nH]c5ccccc5c34)c(Cl)c2)=NN1 [Compound 22, 6-(4-{2-[(S)-3-(9H-carbazol-4-yloxy)-2-hydroxy-propylamino]-ethoxy}-3-chloro-phenyl)-4,5-dihydro-2H-pyridazin-3-one] | < 1000 | < 100

Second part, the molecule after the results:

Row | IC50 (read-out: PDE3 inhibition IC50) [nM] | IC50 [1] [nM] | SMILES
12 | < 1000 |  | O=C1CCC(c2ccc(OCC(=O)N3CCC(NC[C@H](O)COc4cccc(Br)c4)CC3)c(Cl)c2)=NN1 [Compound 8l, 6-[4-(2-{4-[3-(3-bromo-phenoxy)-2-hydroxy-propylamino]-piperidin-1-yl}-2-oxo-ethoxy)-3-chloro-phenyl]-4,5-dihydro-2H-pyridazin-3-one]
13 | < 1000 | < 100 | O=C1CCC(c2ccc(OCC(=O)N3CCC(NC[C@H](O)COc4ccccc4OC(F)(F)F)CC3)c(Cl)c2)=NN1 [Compound 8i, 6-[3-chloro-4-(2-{4-[2-hydroxy-3-(2-trifluoromethoxy-phenoxy)-propylamino]-piperidin-1-yl}-2-oxo-ethoxy)-phenyl]-4,5-dihydro-2H-pyridazin-3-one]
14 | < 1000 |  | O=C1CCC(c2ccc(OCC(=O)N3CCC(NC[C@H](O)COc4ccccc4)CC3)c(Cl)c2)=NN1 [Compound 8a, 6-(3-chloro-4-{2-[4-(2-hydroxy-3-phenoxy-propylamino)-piperidin-1-yl]-2-oxo-ethoxy}-phenyl)-4,5-dihydro-2H-pyridazin-3-one]
15 | < 1000 |  | O=C1CCC(c2ccc(OCC(=O)N3CCC(NC[C@H](O)COc4ccc5c(c4)[nH]c4ccccc45)CC3)c(Cl)c2)=NN1 [Compound 33, 6-[4-(2-{4-[(S)-3-(9H-Carbazol-2-yloxy)-2-hydroxy-propylamino]-piperidin-1-yl}-2-oxo-ethoxy)-3-chloro-phenyl]-4,5-dihydro-2H-pyridazin-3-one]
16 | < 1000 |  | COCCc1ccc(OCC(O)CNC2CCN(C(=O)COc3ccc(C4=NNC(=O)CC4)cc3Cl)CC2)cc1 (racemic) [Compound 13, 6-{3-Chloro-4-[2-(4-{2-hydroxy-3-[4-(2-methoxy-ethyl)-phenoxy]-propylamino}-piperidin-1-yl)-2-oxo-ethoxy]-phenyl}-4,5-dihydro-2H-pyridazin-3-one]
17 | < 1000 |  | N#Cc1ccc(OC[C@@H](O)CNC2CCN(C(=O)COc3ccc(C4=NNC(=O)CC4)cc3Cl)CC2)cc1 [Compound 8o, 4-[3-(1-{2-[2-chloro-4-(6-oxo-1,4,5,6-tetrahydro-pyridazin-3-yl)-phenoxy]-acetyl}-piperidin-4-ylamino)-2-hydroxy-propoxy]-benzonitrile]
18 | < 1000 |  | CC(=O)c1ccccc1OC[C@@H](O)CNC1CCN(C(=O)COc2ccc(C3=NNC(=O)CC3)cc2Cl)CC1 [Compound 8k, 6-[4-(2-{4-[3-(2-acetyl-phenoxy)-2-hydroxy-propylamino]-piperidin-1-yl}-2-oxo-ethoxy)-3-chloro-phenyl]-4,5-dihydro-2H-pyridazin-3-one]
19 | < 1000 |  | O=C1CCC(c2ccc(OCC(=O)N3CCC(NC[C@H](O)COc4cccc5[nH]c6ccccc6c45)CC3)c(Cl)c2)=NN1 [Compound 17, 6-[4-(2-{4-[(S)-3-(9H-Carbazol-4-yloxy)-2-hydroxy-propylamino]-piperidin-1-yl}-2-oxo-ethoxy)-3-chloro-phenyl]-4,5-dihydro-2H-pyridazin-3-one]
20 | < 1000 |  | COc1ccccc1OC[C@@H](O)CNC1CCN(C(=O)COc2ccc(C3=NNC(=O)CC3)cc2Cl)CC1 [Compound 8h, 6-[3-chloro-4-(2-{4-[2-hydroxy-3-(2-methoxy-phenoxy)-propylamino]-piperidin-1-yl}-2-oxo-ethoxy)-phenyl]-4,5-dihydro-2H-pyridazin-3-one]
21 | < 1000 |  | Cc1ccccc1OC[C@@H](O)CNC1CCN(C(=O)COc2ccc(C3=NNC(=O)CC3)cc2Cl)CC1 [Compound 8f, 6-(3-chloro-4-{2-[4-(2-hydroxy-3-o-tolyloxy-propylamino)-piperidin-1-yl]-2-oxo-ethoxy}-phenyl)-4,5-dihydro-2H-pyridazin-3-one]
22 | < 1000 | < 100 | C=CCc1ccccc1OC[C@@H](O)CNC1CCN(C(=O)COc2ccc(C3=NNC(=O)CC3)cc2Cl)CC1 [Compound 8j, 6-[4-(2-{4-[3-(2-allyl-phenoxy)-2-hydroxy-propylamino]-piperidin-1-yl}-2-oxo-ethoxy)-3-chloro-phenyl]-4,5-dihydro-2H-pyridazin-3-one]
23 | < 1000 |  | O=C1CCC(c2ccc(OCC(=O)N3CCC(NC[C@H](O)COc4ccccc4F)CC3)c(Cl)c2)=NN1 [Compound 8b, 6-[3-Chloro-4-(2-{4-[3-(2-fluoro-phenoxy)-2-hydroxy-propylamino]-piperidin-1-yl}-2-oxo-ethoxy)-phenyl]-4,5-dihydro-2H-pyridazin-3-one]
